Read-outs that look alike come from different tables or passages of the source.
What was measured:
[1] = target: T1, O-acetyl-L-serine sulfhydrylase (EhOASS) (Entamoeba histolytica, UniProt O15570); assay: PLP fluorescence titration (ex […] nm, em […] nm); also […] inhibition of purified enzyme at […]; assay type: binding
[2] = target: T1, O-acetyl-L-serine sulfhydrylase (EhOASS); assay: as above; assay type: binding; remark: listed apart in the source

T1 sequence (O15570 entry or part of it): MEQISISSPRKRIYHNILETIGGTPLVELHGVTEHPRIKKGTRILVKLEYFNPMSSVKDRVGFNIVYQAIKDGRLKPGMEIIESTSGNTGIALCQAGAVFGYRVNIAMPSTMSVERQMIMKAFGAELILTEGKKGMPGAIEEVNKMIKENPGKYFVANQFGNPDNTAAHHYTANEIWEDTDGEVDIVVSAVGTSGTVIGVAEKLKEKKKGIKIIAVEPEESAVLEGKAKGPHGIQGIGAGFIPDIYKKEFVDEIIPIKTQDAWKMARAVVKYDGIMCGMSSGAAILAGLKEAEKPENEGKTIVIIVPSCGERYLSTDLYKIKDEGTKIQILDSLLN

SMILES | Kd [1] | Kd [2]
COc1ccc(C2C(C(C)=O)=C(O)C(=O)N2CCC(=O)O)cc1 (centres unmarked) [ZINC03984585, 3-[3-acetyl-4-hydroxy-2-(4-methoxyphenyl)-5-oxo-2,5-dihydro-1H-pyrrol-1-yl]propanoic acid] | 0.18 µM | –
O=C(CSc1nc(O)cc(=O)[nH]1)c1c[nH]c2ccccc12 [ZINC08931589, 4-hydroxy-2-[2-(1H-indol-3-yl)-2-oxoethyl]sulfanyl-1H-pyrimidin-6-one] | – | ~8.05 µM

— article PMC3280239, “Virtual Screening, Identification and In Vitro Testing of Novel Inhibitors of O-Acetyl-L-Serine Sulfhydrylase of Entamoeba histolytica” (PLoS ONE, 2012)
